# Results as given in patent US20200148646A1, “6-S[…] 7-S[…] ANALOGS AND THE USE THEREOF” (Purdue Pharma, L.P., priority 2013, published 2020).
# Assays:
# Format in all cases: biochemical
# μ-opioid receptor [1] = molecular target: T1, μ-opioid receptor (Homo sapiens, UniProt P35372); assay: μ-opioid receptor [35S]GTPγS functional assay, HEK-293 or CHO cells; conditions: for Emax: HEK-293 or CHO cells, relative to DAMGO
# Description: (§1) [^35S]GTPγS functional assays were conducted using freshly thawed μ-receptor membranes prepared in-house from a cell line expressing recombinant opioid receptor in a HEK-293, CHO or U-2 OS cell background, or purchased from a commercial source (Perkin Elmer, Shelton, Conn.; or DiscovRx, Fremont, Calif.). Assay reactions were prepared by sequentially adding the following reagents to binding buffer (100 mM NaCl, 10 mM MgCl2, 20 mM HEPES, pH 7.4) on ice (final concentrations indicated): membrane protein (0.026 mg/mL), saponin ([…]), GDP ([…]) and [^35S]GTPγS (0.20 nM; Perkin Elmer, Shelton, Conn.). The prepared membrane solution (190 l/well) was transferred to 96-shallow well polypropylene plates containing 10 μl of 20× concentrated stock solutions of the agonist [D-Ala^2, N-methyl-Phe^4 Gly-ol^5]-enkephalin (DAMGO) prepared in dimethyl sulfoxide (DMSO). Plates were incubated for 30 min at about 25° C. with shaking. Reactions were terminated by rapid filtration onto 96-well Unifilter GF/B filter plates (Perkin Elmer, Shelton, Conn.) using a 96-well tissue harvester (Perkin Elmer, Shelton, Conn.) followed by three filtration washes with 200 μl of ice-cold wash buffer (10 mM NaH2PO4, 10 mM Na2HPO4, pH 7.4). Filter plates were subsequently dried at 50° C. for 2-3 hr. BetaScint scintillation cocktail (Perkin Elmer, Shelton, Conn.) was added (50 μl/well) and plates were counted using a Packard Top-Count for 1 min/well. Data were analyzed using the sigmoidal dose-response curve fitting functions in GraphPad PRISM v. 3.0, or an in-house function for non-linear, sigmoidal dose-response curve-fitting.
# (§2) μ GTP EC50 is the concentration of a compound providing 50% of the maximal response for the compound at a μ-opioid receptor.
# (§3) μ GTP Emax (%) is the maximal effect elicited by a compound relative to the effect elicited by DAMGO, a standard agonist. Generally, the μ GTP Emax (%) value measures the efficacy of a compound to treat or prevent pain or other Conditions.
# In TABLE 2, activity response of certain Compounds of the Invention at the μ- and κ-opioid receptors using HEK-293 or CHO cells was determined as described above for functional assays.
# μ-opioid receptor [2] = molecular target: T1, μ-opioid receptor; assay: μ-opioid receptor [35S]GTPγS functional assay, U-2 OS cells; parameters: host or cells: U-2 OS cells; conditions: for Emax: U2-OS cells, relative to DAMGO
# Description: as §1, §2, §3
# (§4) In TABLE 2A, activity response of certain Compounds of the Invention at the μ- and κ-opioid receptors using U-2 OS cells was determined as described above for functional assays.
# human κ opioid receptor = human κ opioid receptor (Homo sapiens, UniProt P41145); assay: κ-opioid receptor [35S]GTPγS functional assay, U-2 OS cells; parameters: expressed in transfected cells; host or cells: U-2 OS cells (in-house membranes); conditions: for Emax: U2-OS cells, relative to U69,593
# Description: Membranes from recombinant HEK-293 cells, CHO or U-2 OS cells expressing the recombinant human K opioid receptor (K) were prepared by lysing cells in ice cold hypotonic buffer (2.5 mM MgCl2, 50 mM HEPES, pH 7.4) (10 mL/10 cm dish) followed by homogenization with a tissue grinder/Teflon pestle. Functional [^35S]GTPγS binding assays were conducted as follows. K opioid receptor membrane solution was prepared by sequentially adding final concentrations of 0.026 μg/μl κ membrane protein (in-house), 10 μg/mL saponin, 3 μM GDP and 0.20 nM [^35S]GTPγS to binding buffer (100 mM NaCl, 10 mM MgCl2, 20 mM HEPES, pH 7.4) on ice. The prepared membrane solution (190 μl/well) was transferred to 96-shallow well polypropylene plates containing 10 μl of 20× concentrated stock solutions of agonist prepared in DMSO. Plates were incubated for 30 min at a temperature of about 25° C. with shaking. Reactions were terminated by rapid filtration onto 96-well Unifilter GF/B filter plates (Perkin Elmer, Shelton, Conn.) using a 96-well tissue harvester (Packard) and followed by three filtration washes with 200 μl ice-cold binding buffer (10 mM NaH2PO4, 10 mM Na2HPO4, pH 7.4). Filter plates were subsequently dried at 50° C. for 2-3 hours. Fifty μl/well scintillation cocktail (Perkin Elmer, Shelton, Conn.) was added and plates were counted in a Packard Top-Count for 1 min/well.
# κ GTP EC50 is the concentration of a compound providing 50% of the maximal response for the compound at a κ receptor.
# κ GTP Emax (%) is the maximal effect elicited by a compound relative to the effect elicited by U69,593.
# as §4
# Sequence of human κ opioid receptor (P41145 whole entry): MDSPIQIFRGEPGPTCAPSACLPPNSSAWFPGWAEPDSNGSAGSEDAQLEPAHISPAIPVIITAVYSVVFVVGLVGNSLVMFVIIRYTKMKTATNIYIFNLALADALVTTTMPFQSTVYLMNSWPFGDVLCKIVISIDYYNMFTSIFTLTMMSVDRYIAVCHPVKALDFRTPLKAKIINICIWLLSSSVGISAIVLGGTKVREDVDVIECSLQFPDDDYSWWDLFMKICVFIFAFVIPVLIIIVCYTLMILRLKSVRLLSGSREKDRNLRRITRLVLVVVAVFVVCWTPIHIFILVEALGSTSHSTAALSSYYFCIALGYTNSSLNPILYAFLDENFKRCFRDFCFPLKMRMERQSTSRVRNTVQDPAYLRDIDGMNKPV
# T1 sequence (P35372 whole entry, species assumed): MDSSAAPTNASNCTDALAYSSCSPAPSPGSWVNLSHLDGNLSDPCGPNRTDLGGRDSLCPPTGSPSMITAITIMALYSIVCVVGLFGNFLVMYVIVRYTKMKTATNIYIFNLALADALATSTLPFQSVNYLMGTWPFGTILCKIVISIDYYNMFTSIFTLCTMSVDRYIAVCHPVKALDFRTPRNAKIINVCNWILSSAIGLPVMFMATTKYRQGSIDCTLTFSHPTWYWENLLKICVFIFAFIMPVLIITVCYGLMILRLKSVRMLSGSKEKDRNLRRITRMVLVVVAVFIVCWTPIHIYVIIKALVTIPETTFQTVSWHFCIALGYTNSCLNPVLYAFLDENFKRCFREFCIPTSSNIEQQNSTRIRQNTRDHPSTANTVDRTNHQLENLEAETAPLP
Structure (SMILES),EC50 (μ-opioid receptor [1]) [nM],Emax (μ-opioid receptor [1]) [%],EC50 (μ-opioid receptor [2]) [nM],Emax (μ-opioid receptor [2]) [%],EC50 (human κ opioid receptor) [nM],Emax (human κ opioid receptor) [%]
"COc1ccc2c(c1)[C@]13CCN(CC4CC4)[C@H](C2)[C@]12C[C@H](OCc1ccccc1)[C@H](C3)O2 [Compound 102, (4bR,6S,7S,8aS,9R)-7-(benzyloxy)-11-(cyclopropylmethyl)-3-methoxy-5,6,7,8,9,10-hexahydro-9,4b-(epiminoethano)-6,8a-epoxyphenanthrene]",1520 ± 465,10.5 ± 1.26,470 ± 69.9,42 ± 1.73,1920,58.3 ± 0.67
"COc1ccc2c(c1)[C@@]13CC[C@H](NC(=O)C(C)C)C[C@@]1(O)[C@@H](C2)N(CC1CC1)CC3 [Compound 45, N-((4bS,7S,8aS,9R)-11-(cyclopropylmethyl)-8a-hydroxy-3-methoxy-6,7,8,8a,9,10-hexahydro-5H-9,4b-(epiminoethano)phenanthren-7-yl)isobutyramide]",308 ± 122,15.3 ± 1.86,72 ± 15.9,71 ± 5.69,10.6 ± 2.1,106 ± 1
"CCN[C@H]1C[C@@]2(O)[C@H]3Cc4ccc(O)cc4[C@@]2(CCN3C)C[C@H]1O [Compound 113, (4bR,6R,7S,8aS,9R)-7-(ethylamino)-11-methyl-5,6,7,8,9,10-hexahydro-8aH-9,4b-(epiminoethano)phenanthrene-3,6,8a-triol]",> 20000,3.62 ± 3.99,–,–,–,–
"CN1CC[C@]23C[C@@H](OCCO)C[C@@H](O)[C@@H]2[C@H]1Cc1ccc(O)cc13 [Compound 120, (4bS,6R,8R,8aS,9R)-6-(2-hydroxyethoxy)-11-methyl-6,7,8,8a,9,10-hexahydro-5H-9,4b-(epiminoethano)phenanthrene-3,8-diol]",436 ± 34.7,36.3 ± 1.43,–,–,–,–
"CC(C)CCCC(=O)O[C@@H]1C[C@]23CCN(CC4CC4)[C@H](Cc4ccc(O)cc42)[C@]3(O)C[C@@H]1N [Compound 117, (4bR,6R,7S,8aS,9R)-7-amino-11-(cyclopropylmethyl)-3,8a-dihydroxy-6,7,8,8a,9,10-hexahydro-5H-9,4b-(epiminoethano)phenanthren-6-yl 5-methylhexanoate]",23 ± 3.59,14.1 ± 1.2,–,–,–,–
"CC(C)C(=O)N[C@H]1C[C@@]2(O)[C@H]3Cc4ccc(O)cc4[C@@]2(CCN3C)C[C@H]1O [Compound 104, N-((4bR,6R,7S,8aS,9R)-3,6,8a-trihydroxy-11-methyl-6,7,8,8a,9,10-hexahydro-5H-9,4b-(epiminoethano)phenanthren-7-yl)isobutyramide]",15500 ± 1320,23 ± 1.53,–,–,–,–
"CC(C)C(=O)N[C@H]1CC[C@]23CCN(CC4CC4)[C@H](Cc4ccc(O)cc42)[C@]3(O)C1 [Compound 46, N-((4bS,7S,8aS,9R)-11-(cyclopropylmethyl)-3,8a-dihydroxy-6,7,8,8a,9,10-hexahydro-5H-9,4b-(epiminoethano)phenanthren-7-yl)isobutyramide]",> 20000,7.67 ± 3.48,0.38 ± 0.11,54 ± 6.03,0.1 ± 0.021,102 ± 5.24
"COc1ccc2c(c1)[C@]13CCN(C)[C@H](C2)[C@H]1[C@H](O)C[C@@H](OCCO)C3 [Compound 119, (4bS,6S,8R,8aS,9R)-6-(2-hydroxyethoxy)-3-methoxy-11-methyl-6,7,8,8a,9,10-hexahydro-5H-9,4b-(epiminoethano)phenanthren-8-ol]",> 20000,24.2 ± 3.04,–,–,–,–
"CN1CC[C@]23CC(O)[C@@H](CC4CCCC4)C[C@@]2(O)[C@H]1Cc1ccc(O)cc13 (stereo partly drawn) [Compound 110, (4bR,7S,8aS,9R)-7-(cyclopentylmethyl)-11-methyl-5,6,7,8,9,10-hexahydro-8aH-9,4b-(epiminoethano)phenanthrene-3,6,8a-triol]",> 20000,42.7 ± 32.7,–,–,–,–
"CC(C)C(=O)N[C@H]1C[C@H]2[C@H]3Cc4ccc(O)cc4[C@@]2(CCN3CC2CC2)C[C@H]1O [Compound 112, N-((4bS,6R,7S,8aR,9R)-11-(cyclopropylmethyl)-3,6-dihydroxy-6,7,8,8a,9,10-hexahydro-5H-9,4b-(epiminoethano)phenanthren-7-yl)isobutyramide]",66.7 ± 27.5,8.61 ± 0.31,–,–,–,–
"O=C1C=C2[C@H]3Cc4ccc(O)cc4[C@]2(CC1)CCN3CC1CC1 [Compound 68, (4bS,9R)-11-(cyclopropylmethyl)-3-hydroxy-5,6,9,10-tetrahydro-7H-9,4b-(epiminoethano)phenanthren-7-one]",> 20000,6 ± 3,4.54 ± 1.28,31.3 ± 1.33,1.67 ± 0.099,104 ± 2.31
"CC(C)CCC(=O)N[C@H]1C[C@@]2(O)[C@H]3Cc4ccc(O)cc4[C@@]2(CCN3C)CC1O (stereo partly drawn) [Compound 105, 4-methyl-N-((4bR,7S,8aS,9R)-3,6,8a-trihydroxy-11-methyl-6,7,8,8a,9,10-hexahydro-5H-9,4b-(epiminoethano)phenanthren-7-yl)pentanamide]",3650 ± 294,77 ± 2.65,–,–,–,–
"CC(C)CN[C@H]1CC[C@]23CCN(CC4CC4)[C@H](Cc4ccc(O)cc42)[C@]3(O)C1 [Compound 42, (4bS,7S,8aS,9R)-11-(cyclopropylmethyl)-7-(isobutylamino)-5,6,7,8,9,10-hexahydro-8aH-9,4b-(epiminoethano)phenanthrene-3,8a-diol]",20.2 ± 7.83,16.6 ± 1.63,2.81 ± 0.16,67.3 ± 2.85,0.25 ± 0.029,110
"CC(C)CCCC(=O)N[C@H]1C[C@@]2(O)[C@H]3Cc4ccc(O)cc4[C@@]2(CCN3CC2CC2)C[C@H]1O [Compound 62, N-((4bR,6R,7S,8aS,9R)-11-(cyclopropylmethyl)-3,6,8a-trihydroxy-6,7,8,8a,9,10-hexahydro-5H-9,4b-(epiminoethano)phenanthren-7-yl)-5-methylhexanamide]",54.7 ± 4.52,23.3 ± 0.67,43.3 ± 5.6,60.3 ± 0.88,17.4 ± 1.46,90.2 ± 1.65
